The record followed here is article doi:10.1101/2021.10.07.463234v2 (biorxiv, 2021).

Counter-ions that a name gives are not always drawn. Numbered stars: 1 amine (or outer) side, 2 acyl side, 3 side chain; on linkers, the order of the positions; unused ones are H or OH. Bridge positions count the residues as written; N and C are the ends. Square brackets hold non-standard residues; d marks the D form. Peptide text beside a SMILES is read from it. * marks the point of attachment. pTerphenylCO(4''-OnC5H11) = CCCCCOc1ccc(-c2ccc(-c3ccc(C(=O)*)cc3)cc2)cc1; Orn(4R-OH,5R-OH) = O=C([C@H](C[C@@H](O)[C@@H](O)N[*:3])N[*:1])[*:2]; hTyr(3S-OH,4S-OH) = N[C@H](C(=O)O)[C@H](O)[C@@H](O)c1ccc(O)cc1; Pro(3S-OH,4S-Me) = C[C@H]1CN[C@H](C(=O)O)[C@H]1O; Hyp = O=C(O)[C@@H]1C[C@@H](O)CN1

One assay concerns the target SARS-CoV-2 Mac1 (Severe acute respiratory syndrome coronavirus 2, UniProt P0DTD1). Kind of assay: biochemical. Conditions: 100 µM; inhibitor.
As a reminder, the %inhibition is the share of the control response that was lost under treatment. Low values mean a response near the control, high ones a response far below the control. Regarding `CC1(C)S[C@@H]2[C@H](NC(=O)[C@H](N)c3ccccc3)C(=O)N2[C@H]1C(=O)O` [Ampicillin Trihydrate], the “%inhibition” value is given as 20.11%. Still for that read-out and setting: the same measure for `CC1(C)S[C@@H]2[C@H](NC(=O)[C@H](N)c3ccccc3)C(=O)N2[C@H]1C(=O)O` [Ampicillin sodium]: 0%; for `COc1ccc(C[C@@H](C)NC[C@H](O)c2ccc(O)c(NC=O)c2)cc1` [Arformoterol Tartrate]: 8.751%; for `CC1CNc2c(cccc2S(=O)(=O)N[C@@H](CCCNC(=N)N)C(=O)N2CC[C@@H](C)C[C@@H]2C(=O)O)C1` (some centres unmarked) [Argatroban Monohydrate]: 0%. Still for that read-out and setting: the same measure for `CC1CNc2c(cccc2S(=O)(=O)N[C@@H](CCCNC(=N)N)C(=O)N2CC[C@@H](C)C[C@@H]2C(=O)O)C1` (some centres unmarked) [Argatroban]: 4.667%; for `CC(=O)Oc1ccccc1C(=O)O` [Aspirin]: 26.28%. Same read-out and setting: the same measure for `COc1ccc(C[C@@H]2c3cc(OC)c(OC)cc3CC[N@+]2(C)CCC(=O)OCCCCCOC(=O)CC[N@@+]2(C)CCc3cc(OC)c(OC)cc3[C@H]2Cc2ccc(OC)c(OC)c2)cc1OC` [Atracurium Besylate]: 4.976%. As for `CC[C@H]1OC(=O)[C@H](C)[C@@H](O[C@H]2C[C@@](C)(OC)[C@@H](O)[C@H](C)O2)[C@H](C)[C@@H](O[C@@H]2O[C@H](C)C[C@H](N(C)C)[C@H]2O)[C@](C)(O)C[C@@H](C)CN(C)[C@H](C)[C@@H](O)[C@]1(C)O` [Azithromycin Dihydrate], the “%inhibition” value is 2.079%. Consider `CC[C@H]1OC(=O)[C@H](C)[C@@H](O[C@H]2C[C@@](C)(OC)[C@@H](O)[C@H](C)O2)[C@H](C)[C@@H](O[C@@H]2O[C@H](C)C[C@H](N(C)C)[C@H]2O)[C@](C)(O)C[C@@H](C)CN(C)[C@H](C)[C@@H](O)[C@]1(C)O` [Azithromycin], for which the “%inhibition” value is listed as 5.483%.

Staying with this assay, now noted: read-out: %inhibition.
Broadly, the inhibition is the share of the control response that was lost under treatment. For the molecule `C[C@@H]1[C@H](O)[C@@H](C)/C=C/C=C/C=C/C=C/C=C/C=C/C=C/[C@H](O[C@@H]2O[C@H](C)[C@@H](O)[C@H](N)[C@@H]2O)C[C@@H]2O[C@](O)(C[C@@H](O)C[C@@H](O)[C@H](O)CC[C@@H](O)C[C@@H](O)CC(=O)O[C@H]1C)C[C@H](O)[C@H]2C(=O)O` [Amphotericin B], the inhibition at 100 µM was 2.16%. Still for that read-out and setting: the same measure for `CCOC(=O)OC(C)OC1=C(C(=O)Nc2ccccn2)N(C)S(=O)(=O)c2ccccc21` (centres unmarked) [Ampiroxicam]: 5.86%; for `CC(C)CN(C[C@@H](O)[C@H](Cc1ccccc1)NC(=O)O[C@H]1CCOC1)S(=O)(=O)c1ccc(N)cc1` [Amprenavir]: 0%. On the same count and under the same terms, the same measure for `CCCc1ncc(C[n+]2ccccc2C)c(N)n1` [Amprolium HCl]: 0%.

As for `COc1cc(NS(C)(=O)=O)ccc1Nc1c2ccccc2nc2ccccc12` [Amsacrine hydrochloride], the inhibition at 100 µM worked out at 27%. With `S=C(NCc1ccc2c(c1)OCO2)N1CCN(c2ncnc3c2oc2ccccc23)CC1` [Amuvatinib (MP-470)], the inhibition at 100 µM was found to be 24.8%. `O=C1CN2Cc3c(ccc(Cl)c3Cl)N=C2N1` [Anagrelide HCl]: the inhibition at 100 µM stood at 0%. Consider `CN(C)N(C)C(=O)[C@@]1(Cc2ccccc2)CCCN(C(=O)[C@@H](Cc2c[nH]c3ccccc23)NC(=O)C(C)(C)N)C1` [Anamorelin], for which the inhibition at 100 µM worked out at 1.6%. Take `CC(C)(C#N)c1cc(Cn2cncn2)cc(C(C)(C)C#N)c1` [Anastrozole]: the inhibition at 100 µM stood at 10.3%.

As for `CCCCCOc1ccc(-c2ccc(-c3ccc(C(=O)N[C@H]4C[C@@H](O)[C@@H](O)NC(=O)[C@@H]5[C@@H](O)[C@@H](C)CN5C(=O)[C@H]([C@@H](C)O)NC(=O)[C@H]([C@H](O)[C@@H](O)c5ccc(O)cc5)NC(=O)[C@@H]5C[C@@H](O)CN5C(=O)[C@H]([C@@H](C)O)NC4=O)cc3)cc2)cc1` [Anidulafungin (LY303366)] ({pTerphenylCO(4''-OnC5H11)}-[Orn(4R-OH,5R-OH)]T[Hyp][hTyr(3S-OH,4S-OH)]T[Pro(3S-OH,4S-Me)]; lactam 1-C), the inhibition at 100 µM was 6.34%. On the same count and under the same terms, the same measure for `COc1ccc(C(=O)N2CCCC2=O)cc1` [Aniracetam]: 0%. Same read-out and setting: the same measure for `COc1ccc(C2C(=O)c3ccccc3C2=O)cc1` [Anisindione]: 2.26%; for `CCCC(CCC)C(=O)O[C@H]1C[C@H]2CC[C@@H](C1)[N+]2(C)C` [Anisotropine Methylbromide]: 5.8%; for `Cc1cc(=O)n(-c2ccccc2)n1C` [Antipyrine]: 8.75%. The same measure, in the same setting: the same measure for `N#CC1(c2ccc(NC(=O)c3cccnc3NCc3ccncc3)cc2)CCCC1` [Apatinib?mesylate]: 0%; for `COc1ccc(-n2nc(C(N)=O)c3c2C(=O)N(c2ccc(N4CCCCC4=O)cc2)CC3)cc1` [Apixaban]: 0%. `CCOc1cc([C@@H](CS(C)(=O)=O)N2C(=O)c3cccc(NC(C)=O)c3C2=O)ccc1OC` [Apremilast (CC-10004)]: the inhibition at 100 µM was 0%. The same measure, in the same setting: the same measure for `C[C@@H](O[C@H]1OCCN(Cc2n[nH]c(=O)[nH]2)[C@H]1c1ccc(F)cc1)c1cc(C(F)(F)F)cc(C(F)(F)F)c1` [Aprepitant]: 10.1%. Still for that read-out and setting: the same measure for `COC(=O)C1=CCCN(C)C1` [Arecoline HBr]: 3.01%. Same read-out and setting: the same measure for `CO[C@H]1O[C@@H]2O[C@@]3(C)CC[C@H]4[C@H](C)CC[C@@H]([C@H]1C)[C@@]24OO3` [Artemether]: 0%; for `C[C@@H]1CC[C@H]2[C@@H](C)C(=O)O[C@@H]3O[C@@]4(C)CC[C@@H]1[C@]32OO4` [Artemisinin]: 10.9%. Take `C[C@H]1[C@H](OC(=O)CCC(=O)O)O[C@@H]2O[C@@]3(C)CC[C@H]4[C@H](C)CC[C@@H]1[C@@]24OO3` [Artesunate]: the inhibition at 100 µM came to 0%.

Consider `CCCNC(C)C(=O)Nc1c(C)csc1C(=O)OC` (centres unmarked) [Articaine HCl], for which the inhibition at 100 µM came to 0%. As to `COC(=O)[C@H](Cc1ccccc1)NC(=O)[C@@H](N)CC(=O)O` [Aspartame] (H-Asp-Phe-OMe), the inhibition at 100 µM was determined as 0%. Regarding `C=C[C@@H]1C[C@]1(NC(=O)[C@@H]1C[C@@H](Oc2ncc(OC)c3ccc(Cl)cc23)CN1C(=O)[C@@H](NC(=O)OC(C)(C)C)C(C)(C)C)C(=O)NS(=O)(=O)C1CC1` [Asunaprevir], the inhibition at 100 µM was determined as 0%. Still for that read-out and setting: the same measure for `COC(=O)N[C@H](C(=O)N[C@@H](Cc1ccccc1)[C@@H](O)CN(Cc1ccc(-c2ccccn2)cc1)NC(=O)[C@@H](NC(=O)OC)C(C)(C)C)C(C)(C)C` [Atazanavir Sulfate]: 0%.

For `CC(C)NCC(O)COc1ccc(CC(N)=O)cc1` (centres unmarked) [Atenolol], the inhibition at 100 µM worked out at 0%. As for `CCC1(c2c[nH]cn2)Cc2ccccc2C1` [Atipamezole hydrochloride], the inhibition at 100 µM worked out at 0%.

For `CNCC[C@@H](Oc1ccccc1C)c1ccccc1` [Atomoxetine HCl], the inhibition at 100 µM was 0%. The same measure, in the same setting: the same measure for `CC(C)c1c(C(=O)Nc2ccccc2)c(-c2ccccc2)c(-c2ccc(F)cc2)n1CC[C@@H](O)C[C@@H](O)CC(=O)O` [Atorvastatin Calcium]: 0%. Same read-out and setting: the same measure for `O=C1C(O)=C([C@H]2CC[C@H](c3ccc(Cl)cc3)CC2)C(=O)c2ccccc21` [Atovaquone]: 23.4%; for `NC(=O)[C@@H](CCC(F)(F)F)N(Cc1ccc(-c2ncon2)cc1F)S(=O)(=O)c1ccc(Cl)cc1` [Avagacestat (BMS-708163)]: 0%. Still for that read-out and setting: the same measure for `COc1ccc(CNc2nc(N3CCC[C@H]3CO)ncc2C(=O)NCc2ncccn2)cc1Cl` [Avanafil]: 0%. On to `NC(=O)[C@@H]1CC[C@@H]2CN1C(=O)N2OS(=O)(=O)O` [Avibactam sodium], for which the inhibition at 100 µM is 0%. In the case of `COc1ccc(C(=O)CC(=O)c2ccc(C(C)(C)C)cc2)cc1` [Avobenzone], the inhibition at 100 µM is 26.5%. Same read-out and setting: the same measure for `CNC(=O)c1ccccc1Sc1ccc2c(/C=C/c3ccccn3)n[nH]c2c1` [Axitinib]: 59.3%; for `Nc1ncn([C@@H]2O[C@H](CO)[C@@H](O)[C@H]2O)c(=O)n1` [Azacitidine]: 32.2%. Turning to `OC(c1ccccc1)(c1ccccc1)C1CCNCC1` [Azacyclonol], the inhibition at 100 µM stood at 0%. Take `O=C(CCCN1CCN(c2ccccn2)CC1)c1ccc(F)cc1` [Azaperone]: the inhibition at 100 µM amounted to 22.5%. On the same count and under the same terms, the same measure for `CN1C(=O)COc2c(C(=O)NC3CN4CCC3CC4)cc(Cl)cc21` (centres unmarked) [Azasetron HCl]: 0%; for `CN1CCC(=C2c3ccccc3CCc3cccnc32)CC1` [Azatadine dimaleate]: 0%; for `Cn1cnc([N+](=O)[O-])c1Sc1ncnc2[nH]cnc12` [Azathioprine]: 18.9%.

For the molecule `O=C(O)CCCCCCCC(=O)O` [Azelaic acid], the inhibition at 100 µM was found to be 0%.

On to `CN1CCCC(n2nc(Cc3ccc(Cl)cc3)c3ccccc3c2=O)CC1` (centres unmarked) [Azelastine HCl], for which the inhibition at 100 µM was 20.2%. On the same count and under the same terms, the same measure for `CC1=C(C(=O)OC(C)C)C(c2cccc([N+](=O)[O-])c2)C(C(=O)OC2CN(C(c3ccccc3)c3ccccc3)C2)=C(N)N1` (centres unmarked) [Azelnidipine]: 12.9%. Still for that read-out and setting: the same measure for `CCOc1nc2cccc(C(=O)OCc3oc(=O)oc3C)c2n1Cc1ccc(-c2ccccc2-c2noc(=O)[nH]2)cc1` [Azilsartan Medoxomil]: 9.53%. Still for that read-out and setting: the same measure for `CCOc1nc2cccc(C(=O)O)c2n1Cc1ccc(-c2ccccc2-c2noc(=O)[nH]2)cc1` [Azilsartan]: 16.1%; for `CC1(C)S[C@@H]2[C@H](NC(=O)[C@H](NC(=O)N3CCNC3=O)c3ccccc3)C(=O)N2[C@H]1C(=O)O` [Azlocillin sodium salt]: 0%; for `C[C@H]1[C@H](NC(=O)/C(=N\OC(C)(C)C(=O)O)c2csc(N)n2)C(=O)N1S(=O)(=O)O` [Aztreonam]: 11.7%. On to `CCc1cc(/C(C)=N/OCc2ccc(C3CCCCC3)c(C(F)(F)F)c2)ccc1CN1CC(C(=O)O)C1` [BAF312 (Siponimod)], for which the inhibition at 100 µM worked out at 26.1%.
